Results from US8906911B2, “Chemokine receptor antagonists” (AbbVie Inc., priority 2012, dated 2014).
Like-named read-outs stand apart in the source and are kept apart here.

Key:
rat CCR2 = rat CCR2 (Rattus norvegicus (Rat), UniProt O55193); experiment: Inhibition of native agonist (rat MCP-1)-induced intracellular calcium release, calcium flux assay in CHO cells expressing rat CCR2 and Gα16; assay type: cell-based; settings: read-out: rCCR2 Kb
Description: (§1) CHO cells expressing human CCR2B were generated as follows. cDNA for human CCR2B (cloned from human blood) was cloned into plasmid pcDNA3.1 (from Invitrogen). The resulting plasmids were separately transfected into CHO cells expressing human Gα16 (from Molecular Devices). […] CHO cells expressing rat CCR2 were generated as follows. cDNA for rat CCR2 (cloned from rat macrophage) was cloned into plasmid pEF-flag (from Chinese Academy of Science). The resulting plasmids were transfected into CHO cells expressing human Gα16 (from […]).
(§2) Inhibition of Native Agonist-Induced Intracellular Calcium Release in Cells Expressing hCCR2B or rCCR2
(§3) Calcium flux assays were performed in CHO cells expressing human CCR2B and Gα16 coupling protein, or rat CCR2 and Gα16 coupling protein. All compounds were dissolved in DMSO and assays run at a final DMSO concentration of 0.25% (v/v). Human MCP-1 was purchased from PeproTech and used at a final assay concentration of 2 nM, while rat MCP-1 was purchased from R&D and used at a final assay concentration of 4 nM. Assays with cells expressing human CCR2B were performed with human MCP-1, while assays with cells expressing rat CCR2 were performed with rat MCP-1.
(§4) Briefly, cells were cultured overnight in a microtiter plate at 8000 per well. The next day, the resultant adherent cells were incubated in assay buffer (20 mM HEPES, pH 7.4, 0.1% bovine serum albumin, and 2.5 mM probenocid in Hank's Buffered Saline Solution) containing Calcium 4 dye (Molecular Probes) at 37° C. for 60 minutes. Calcium flux assays were performed on a FLIPR^Tetra instrument (Molecular Devices) by adding compound to the cells followed by addition of native agonist and measuring the change in fluorescence as a function of time. Maximal and minimal values for fluorescence were determined using native agonist (2 nM MCP-1) for human or rat CCR2, or buffer addition, respectively. Fluorescence values were used to calculate the percent inhibition at a given compound concentration and the data fit to a sigmoidal curve in a semi-log plot to determine IC50 values. The Kb value is calculated as Kb=IC50/(1+[agonist]/EC50), where [agonist] is the concentration of agonist used and EC50 is the agonist potency determined in the previous experiments. Mean Kb values and IC50 of the compounds assayed are reported in Table 2 and Table 3 respectively.

human CCR2B = human CCR2B (Homo sapiens (Human), UniProt P41597); experiment: Inhibition of native agonist (human MCP-1)-induced intracellular calcium release, calcium flux assay in CHO cells expressing human CCR2B and Gα16; assay type: cell-based; settings: for IC50: read-out: hCCR2B IC50
Chain of human CCR2B (P41597 other isoform, or with tags, fused parts or gaps): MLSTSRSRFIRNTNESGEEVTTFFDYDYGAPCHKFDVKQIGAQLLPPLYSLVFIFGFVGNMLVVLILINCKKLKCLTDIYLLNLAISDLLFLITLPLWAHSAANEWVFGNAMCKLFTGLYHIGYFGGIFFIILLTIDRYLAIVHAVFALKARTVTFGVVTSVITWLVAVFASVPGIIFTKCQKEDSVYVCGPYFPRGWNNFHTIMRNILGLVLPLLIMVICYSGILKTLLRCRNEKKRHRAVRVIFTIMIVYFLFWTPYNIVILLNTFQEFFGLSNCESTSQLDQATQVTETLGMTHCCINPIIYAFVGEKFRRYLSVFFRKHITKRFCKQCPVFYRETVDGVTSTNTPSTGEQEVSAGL
Description: as §1, §2, §3, §4

Chain of rat CCR2 (O55193 whole entry): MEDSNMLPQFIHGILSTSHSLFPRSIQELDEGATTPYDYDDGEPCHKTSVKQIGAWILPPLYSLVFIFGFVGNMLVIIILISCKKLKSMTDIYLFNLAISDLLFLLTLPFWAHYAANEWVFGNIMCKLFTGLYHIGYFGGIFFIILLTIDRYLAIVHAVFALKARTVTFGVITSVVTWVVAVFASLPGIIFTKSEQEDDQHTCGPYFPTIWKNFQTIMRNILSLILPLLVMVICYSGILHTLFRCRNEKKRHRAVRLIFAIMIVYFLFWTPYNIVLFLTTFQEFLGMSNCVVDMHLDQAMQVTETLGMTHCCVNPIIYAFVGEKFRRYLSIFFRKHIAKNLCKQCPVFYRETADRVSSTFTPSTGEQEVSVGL

Molecule `CO[C@@H]1COCC[C@@H]1N[C@@H]1C[C@H]2CCC[C@@]2(C(=O)N2C[C@@H]3C[C@H]2CN3c2ccc(Cl)c(C(F)(F)F)c2)C1` [Example 46, 1,5-anhydro-3-{[(2R,3aR,6aR)-3a-({(1S,4S)-5-[4-chloro-3-(trifluoromethyl)phenyl]-2,5-diazabicyclo[2.2.1]hept-2-yl}carbonyl)octahydropentalen-2-yl]amino}-2,3-dideoxy-4-O-methyl-D-erythro-pentitol] has a Kb (rat CCR2) of 3 nM and a Kb (human CCR2B; read-out: hCCR2B Kb) of 4 nM.
For `C[C@H]1COCC[C@H]1N[C@@H]1C[C@H]2CCC[C@@]2(C(=O)N2C[C@@H]3C[C@H]2CN3c2cc(C(F)(F)F)ccn2)C1` [Example 62, [(2R,3aR,6aR)-2-{[(3R,4R)-3-methyltetrahydro-2H-pyran-4-yl]amino}hexahydropentalen-3a(1H)-yl]{(1S,4S)-5-[4-(trifluoromethyl)pyridin-2-yl]-2,5-diazabicyclo[2.2.1]hept-2-yl}methanone], the Kb (rat CCR2) was 55 nM, the IC50 (human CCR2B; calcium flux, human MCP-1 2 nM) was 445 nM and the Kb (human CCR2B; read-out: hCCR2B Kb) was 109 nM.
In the case of `CO[C@@H]1COCC[C@H]1N[C@@H]1C[C@H]2CCC[C@@]2(C(=O)N2C[C@H]3C[C@@H]2CN3c2cc(C(F)(F)F)ccn2)C1` [Example 4, 1,5-anhydro-2,3-dideoxy-4-O-methyl-3-{[(2R,3aR,6aR)-3a-({(1R,4R)-5-[4-(trifluoromethyl)pyridin-2-yl]-2,5-diazabicyclo[2.2.1]hept-2-yl}carbonyl)octahydropentalen-2-yl]amino}-D-threo-pentitol], the Kb (rat CCR2) is reported as > 6940 nM, the IC50 (human CCR2B; calcium flux, human MCP-1 2 nM) is reported as 25000 nM and the Kb (human CCR2B; read-out: hCCR2B Kb) is reported as > 6140 nM.
`O=C(O)c1cccc(C2CCN([C@@H]3C[C@H]4CCC[C@@]4(C(=O)N4C[C@@H]5C[C@H]4CN5c4cc(C(F)(F)F)ccn4)C3)CC2)c1` [Example 10, 3-{1-[(2R,3aR,6aR)-3a-({(1S,4S)-5-[4-(trifluoromethyl)pyridin-2-yl]-2,5-diazabicyclo[2.2.1]hept-2-yl}carbonyl)octahydropentalen-2-yl]piperidin-4-yl}benzoic acid] showed a Kb (rat CCR2) of 38 nM, an IC50 (human CCR2B; calcium flux, human MCP-1 2 nM) of 1600 nM and a Kb (human CCR2B; read-out: hCCR2B Kb) of 394 nM.
In the case of `CO[C@@H]1COCC[C@@H]1N[C@@H]1C[C@H]2CCC[C@@]2(C(=O)N2[C@@H]3CC[C@H]2CN(c2cc(C(F)(F)F)ccn2)C3)C1` [Example 8, 1,5-anhydro-2,3-dideoxy-4-O-methyl-3-{[(2R,3aR,6aR)-3a-({(1R,5S)-3-[4-(trifluoromethyl)pyridin-2-yl]-3,8-diazabicyclo[3.2.1]oct-8-yl}carbonyl)octahydropentalen-2-yl]amino}-D-erythro-pentitol], the Kb (rat CCR2) is reported as > 6940 nM, the IC50 (human CCR2B; calcium flux, human MCP-1 2 nM) is reported as 14400 nM and the Kb (human CCR2B; read-out: hCCR2B Kb) is reported as > 3550 nM.
`CO[C@@H]1COCC[C@@H]1N(C)[C@@H]1C[C@H]2CCC[C@@]2(C(=O)N2C[C@@H]3C[C@H]2CN3c2cc(C#N)cc(C(F)(F)F)c2)C1` [Example 57, 1,5-anhydro-3-{[(2R,3aR,6aR)-3a-({(1S,4S)-5-[3-cyano-5-(trifluoromethyl)phenyl]-2,5-diazabicyclo[2.2.1]hept-2-yl}carbonyl)octahydropentalen-2-yl](methyl)amino}-2,3-dideoxy-4-O-methyl-D-erythro-pentitol] showed a Kb (rat CCR2) of 55 nM, an IC50 (human CCR2B; calcium flux, human MCP-1 2 nM) of 521 nM and a Kb (human CCR2B; read-out: hCCR2B Kb) of 128 nM.
With `CO[C@@H]1COCC[C@@H]1N[C@@H]1C[C@H]2CCC[C@@]2(C(=O)N2C[C@H]3C[C@@H]2CN3c2cc(C(F)(F)F)ccn2)C1` [Example 3, 1,5-anhydro-2,3-dideoxy-4-O-methyl-3-{[(2R,3aR,6aR)-3a-({(1R,4R)-5-[4-(trifluoromethyl)pyridin-2-yl]-2,5-diazabicyclo[2.2.1]hept-2-yl}carbonyl)octahydropentalen-2-yl]amino}-D-erythro-pentitol] the Kb (rat CCR2) was 694 nM, the IC50 (human CCR2B; calcium flux, human MCP-1 2 nM) was 2500 nM and the Kb (human CCR2B; read-out: hCCR2B Kb) was 614 nM.
Molecule `CO[C@@H]1COCC[C@@H]1N[C@@H]1C[C@H]2CCC[C@@]2(C(=O)N2C[C@@H]3C[C@H]2CN3c2cc(C(F)(F)F)cnn2)C1` [Example 5, 1,5-anhydro-2,3-dideoxy-4-O-methyl-3-{[(2R,3aR,6aR)-3a-({(1S,4S)-5-[5-(trifluoromethyl)pyridazin-3-yl]-2,5-diazabicyclo[2.2.1]hept-2-yl}carbonyl)octahydropentalen-2-yl]amino}-D-erythro-pentitol] has a Kb (rat CCR2) of 7 nM.
For `CO[C@@H]1COCC[C@@H]1N[C@@H]1C[C@H]2CCC[C@@]2(C(=O)N2C[C@@H]3C[C@H]2CN3c2cc(C#N)cc(C(F)(F)F)c2)C1` [Example 42, 1,5-anhydro-3-{[(2R,3aR,6aR)-3a-({(1S,4S)-5-[3-cyano-5-(trifluoromethyl)phenyl]-2,5-diazabicyclo[2.2.1]hept-2-yl}carbonyl)octahydropentalen-2-yl]amino}-2,3-dideoxy-4-O-methyl-D-erythro-pentitol], the Kb (rat CCR2) was 26 nM, the Kb (human CCR2B) was 199 nM and the IC50 (human CCR2B) was 812 nM.
In the case of `CO[C@@H]1COCC[C@@H]1N[C@@H]1C[C@H]2CCC[C@@]2(C(=O)N2C[C@@H]3C[C@H]2CN3c2cc(C(F)(F)F)cc(C(F)(F)F)c2)C1` [Example 43, 1,5-anhydro-3-{[(2R,3aR,6aR)-3a-({(1S,4S)-5-[3,5-bis(trifluoromethyl)phenyl]-2,5-diazabicyclo[2.2.1]hept-2-yl}carbonyl)octahydropentalen-2-yl]amino}-2,3-dideoxy-4-O-methyl-D-erythro-pentitol], the Kb (rat CCR2) is reported as 53 nM and the Kb (human CCR2B; read-out: hCCR2B Kb) is reported as 373 nM.
`CO[C@@H]1COCC[C@H]1N[C@@H]1C[C@H]2CCC[C@@]2(C(=O)N2C[C@@H]3C[C@H]2CN3c2cc(C(F)(F)F)cnn2)C1` (stereo in doubt) [Example 6] was tested, and the Kb (rat CCR2) was 29 nM.
In the case of `CN(C1CCOCC1)C1CC2CCCC2(C(=O)N2CCN(c3ccc(C(F)(F)F)cc3)CC2)C1` (stereo not drawn) [Compound A, reference compound], the IC50 (human CCR2B; calcium flux, human MCP-1 2 nM) is reported as > 50000 nM.
Work on `CO[C@@H]1COCC[C@@H]1N[C@@H]1C[C@H]2CCC[C@@]2(C(=O)N2C[C@@H]3C[C@H]2CN3c2cccc(C(F)(F)F)c2C#N)C1` [Example 45, 1,5-anhydro-3-{[(2R,3aR,6aR)-3a-({(1S,4S)-5-[2-cyano-3-(trifluoromethyl)phenyl]-2,5-diazabicyclo[2.2.1]hept-2-yl}carbonyl)octahydropentalen-2-yl]amino}-2,3-dideoxy-4-O-methyl-D-erythro-pentitol] yielded a Kb (rat CCR2) of 532 nM, an IC50 (human CCR2B; calcium flux, human MCP-1 2 nM) of 2200 nM and a Kb (human CCR2B; read-out: hCCR2B Kb) of 542 nM.
Work on `O=C(O)c1cccc(C2CCN([C@H]3C[C@H]4CCC[C@@]4(C(=O)N4C[C@@H]5C[C@H]4CN5c4cc(C(F)(F)F)ccn4)C3)CC2)c1` [Example 9, 3-{1-[(2S,3aR,6aR)-3a-({(1S,4S)-5-[4-(trifluoromethyl)pyridin-2-yl]-2,5-diazabicyclo[2.2.1]hept-2-yl}carbonyl)octahydropentalen-2-yl]piperidin-4-yl}benzoic acid] yielded a Kb (rat CCR2) of 22 nM, an IC50 (human CCR2B) of 470 nM and a Kb (human CCR2B; read-out: hCCR2B Kb) of 116 nM.
With `O=C(N1CCN(c2ccc(C(F)(F)F)cc2)CC1)C12CCCC1CC(N1CCC(c3ccccc3)CC1)C2` (stereo not drawn) [Compound B, reference compound] the IC50 (human CCR2B; calcium flux, human MCP-1 2 nM) was 28000 nM.
`CO[C@@H]1COCC[C@@H]1N[C@@H]1C[C@H]2CCC[C@@]2(C(=O)N2C[C@@H]3C[C@H]2CN3c2cc(C(F)(F)F)cc(C)n2)C1` [Example 11, 1,5-anhydro-2,3-dideoxy-4-O-methyl-3-{[(2R,3aR,6aR)-3a-({(1S,4S)-5-[6-methyl-4-(trifluoromethyl)pyridin-2-yl]-2,5-diazabicyclo[2.2.1]hept-2-yl}carbonyl)octahydropentalen-2-yl]amino}-D-erythro-pentitol] showed a Kb (rat CCR2) of 74 nM.
